Measurements as given in patent US20060241026A1, “Novel cyclic peptides and use thereof as anti-microbial agents” (priority 2002, published 2006).
≈ marks a conversion by molar mass, not a printed value. Like-named read-outs stand apart in the source and are kept apart here. Positions of bridges follow the written chain, without caps; N, C: chain ends. Residues, ends and D or L forms follow the SMILES beside them. No end group written: not given here.

What was measured:
Assay type in all cases: cell-based
[1] = test system: Staphylococcus epidermidis
Protocol: (§1) The activity of the synthetic peptides was tested with respect to the Gram+ bacteria Mycrocossus luteus, Staphylococcus aureus, Staphylococcus epidermidis and Bacillus megaterium. The activities were determined according to the protocol described by HANCOCK et al. (http://www.interchg.ubc.ca/bobh/methods.htm)
(§2) The MIC was determined for each peptide by inhibition of growth in liquid medium. Doubling dilution of peptide was realized in the wells of a Microtest plate in a volume of 10 μl. The bacteria were grown in MUELLER HINTON BROTH (MHB, Difco) liquid medium. During the exponential growth phase, a solution with an optical density of 0.001 at 600 nm was produced, and 100 μl of this suspension were added to each well. The incubation lasted 24 h at 30° C., and the optical densities of each well were then measured at 600 nm. The value of the MIC corresponds to the first well for which the optical density had not changed.
(§3) The dishes were incubated for 24 h at 30° C. The value of the MBC corresponds to the lowest concentration of the peptide for which no colony developed.

Bacillus megaterium = details: Bacillus
Protocol: as §1, §2, §3

Micrococcus luteus = test system: Micrococcus luteus
Protocol: as §1, §2, §3

Staphylococcus aureus = test system: Staphylococcus aureus
Protocol: as §1, §2, §3

Fusarium oxysporum = details: 24 h
Protocol: (§4) The anti-fungal activity was determined by calculating the MIC in a growth inhibition assay for the shrimp parasite fungus Fusarium oxysporum, in liquid phase, according to the protocol described by FELHBAM et al. (J. Biol. Chem., 1994, 269:33159-63). Doubling dilutions of each peptide were realized in the wells of a Microtest plate in a volume of 10 μl. 90 μl of spores resuspended in potato dextrose broth medium (DIFCO) at a final concentration of 10^4 spores/ml were added to each well. The growth inhibition was measured after incubation for 24 h at 25° C. in the dark, by observation under an optical microscope and measurement of the increase in OD at 600 nm. The value of the MIC corresponds to the first well for which the optical density had not increased.

[2] = test system: Gram+ and Gram− bacteria and a filamentous fungus; test: Antibiotic tests on Gram+ and Gram- bacteria and on a filamentous fungus, summary in words; details: compared with the native molecule or the minimal loop
Protocol: as §1, §2, §3, §4
Using the 3-D structure of the native molecule as a basis, said molecule was fractionated into 17 elements (table I). All these fragments were synthesized and their activities were assayed using antibiotic tests on Gram+ and Gram− bacteria and on a filamentous fungus. The minimum inhibitory concentration (MIC) and minimum […] concentration (MBC) of each peptide were thus determined and were compared with those of the native molecule.

[3] = test system: Micrococcus lysodeikticus
Protocol: as §2, §3

## CC(C)C[C@@H]1NC(=O)[C@H](CCCNC(=N)N)NC(=O)[C@H](Cc2c[nH]cn2)NC(=O)[C@H](Cc2c[nH]c3ccccc23)NC(=O)CNC(=O)CNC(=O)[C@@H](NC(=O)[C@H](Cc2ccc(O)cc2)NC(=O)CNC(=O)CNC(=O)[C@@H](N)CO)CSSC[C@@H](C(=O)O)NC(=O)[C@H](CCCNC(=N)N)NC1=O [SEQ ID NO:4, SGGYC^(S)GGWHRLRS^(S)] (H-SGGYCGGWHRLRC-OH; disulfide 5-13; N-terminus and C-terminus assumed)
[1]
  Staphylococcus epidermidis MBC: >75 µM
  Staphylococcus epidermidis MIC: 38 µM
Bacillus megaterium
  Bacillus megaterium MBC: >75 µM
  Bacillus megaterium MIC: 52 µM
Micrococcus luteus
  Micrococcus luteus MBC: 13 µM
  Micrococcus luteus MIC: 26 µM
Micrococcus luteus; 24 h
  MIC on M leuteus: 67 µM (≈ 97.1 µg/mL)
Staphylococcus aureus
  Staphylococcus aureus MBC: >75 µM
  Staphylococcus aureus MIC: 67 µM
Fusarium oxysporum
  Fusarium oxysporum MIC: 41 µM

## CC(C)C[C@@H]1NC(=O)[C@H](CCCNC(=N)N)NC(=O)[C@H](Cc2c[nH]cn2)NC(=O)[C@H](Cc2c[nH]c3ccccc23)NC(=O)CNC(=O)CNC(=O)[C@H](CO)NC(=O)[C@H](Cc2ccc(O)cc2)NC(=O)CNC(=O)CNC(=O)[C@@H](N)CSSC[C@@H](C(=O)NCC(=O)O)NC(=O)[C@H](CCCNC(=N)N)NC(=O)[C@H](Cc2ccc(O)cc2)NC(=O)[C@H](CO)NC(=O)[C@H]([C@@H](C)O)NC(=O)[C@H](CO)NC(=O)[C@H](CCCNC(=N)N)NC1=O [SEQ ID NO:5, C^(S)GGYSGGWHRLRSTSYRC^(S)G] (H-CGGYSGGWHRLRSTSYRCG-OH; disulfide 1-18; N-terminus and C-terminus assumed)
[1]
  Staphylococcus epidermidis MBC: >75 µM
  Staphylococcus epidermidis MIC: 35 µM
Bacillus megaterium
  Bacillus megaterium MBC: 75 µM
  Bacillus megaterium MIC: 24 µM
Micrococcus luteus
  Micrococcus luteus MBC: 18 µM
  Micrococcus luteus MIC: 18 µM
Micrococcus luteus; 24 h
  MBC on M leuteus: 13 µM (≈ 27.3 µg/mL)
Staphylococcus aureus
  Staphylococcus aureus MBC: >75 µM
  Staphylococcus aureus MIC: 14 µM
Fusarium oxysporum
  Fusarium oxysporum MIC: 18.5 µM

## CC[C@H](C)[C@@H]1NC(=O)[C@H](CO)NC(=O)[C@H](CCCCN)NC(=O)[C@@H](NC(=O)[C@H](Cc2c[nH]cn2)NC(=O)[C@H](CCCNC(=N)N)NC(=O)[C@H](Cc2c[nH]cn2)NC(=O)[C@H](CO)NC(=O)[C@H](CCC(N)=O)NC(=O)[C@H](Cc2ccc(O)cc2)NC(=O)[C@H](CC(N)=O)NC(=O)[C@H](CC(N)=O)NC(=O)[C@@H]2CCCN2)CSSC[C@@H](C(=O)O)NC(=O)[C@H](CCCNC(=N)N)NC(=O)CNC(=O)[C@@H]2CCCN2C1=O [SEQ ID NO:11, PNNYQSHRHCKSIPGRC] (H-PNNYQSHRHCKSIPGRC-OH; disulfide 10-17; N-terminus and C-terminus assumed)
Micrococcus luteus; 24 h
  MIC on M leuteus: >75 µM

## CC[C@H](C)[C@@H]1NC(=O)[C@H](CO)NC(=O)[C@H](CCCCN)NC(=O)[C@@H](N)CSSC[C@@H](C(=O)NCC(=O)O)NC(=O)[C@H](CCCNC(=N)N)NC(=O)CNC(=O)[C@@H]2CCCN2C1=O [SEQ ID NO:15, CKSIPGRCG] (H-CKSIPGRCG-OH; disulfide 1-8; N-terminus and C-terminus assumed)
Micrococcus luteus; 24 h
  MIC on M leuteus: >75 µM
[2]
  anti-microbial activity (in words): show no activity

## C[C@@H](O)[C@@H]1NC(=O)[C@H](CO)NC(=O)[C@H](CO)NC(=O)[C@H](Cc2ccc(O)cc2)NC(=O)CNC(=O)CNC(=O)[C@@H](N)CSSC[C@@H](C(=O)NCC(=O)O)NC(=O)[C@H](CCCNC(=N)N)NC(=O)[C@H](Cc2ccc(O)cc2)NC(=O)[C@H](CO)NC1=O [SEQ ID NO:16, CGGYSSTSYRCG] (H-CGGYSSTSYRCG-OH; disulfide 1-11; N-terminus and C-terminus assumed)
Micrococcus luteus; 24 h
  MIC on M leuteus: >75 µM
[2]
  anti-microbial activity (in words): do not comprise any intrinsic activity

## CC(C)C[C@@H]1NC(=O)[C@H](CCCNC(=N)N)NC(=O)[C@H](CCCCN)NC(=O)[C@H](Cc2c[nH]c3ccccc23)NC(=O)CNC(=O)CNC(=O)[C@@H](N)CSSC[C@@H](C(=O)O)NC(=O)[C@H](CCCNC(=N)N)NC1=O [SEQ ID NO:19, C^(S)GGWKRLRC^(S)] (H-CGGWKRLRC-OH; disulfide 1-9; N-terminus and C-terminus assumed)
Staphylococcus aureus
  Staphylococcus aureus MBC: 20 µM
  Staphylococcus aureus MIC: 33 µM
[3]
  Micrococcus lysodeikticus MIC: 13 µM

## N=C(N)NCCC[C@@H]1NC(=O)[C@H](CCCCN)NC(=O)[C@H](CCCNC(=N)N)NC(=O)[C@H](CCCCN)NC(=O)[C@H](Cc2c[nH]c3ccccc23)NC(=O)CNC(=O)CNC(=O)[C@@H](N)CSSC[C@@H](C(=O)O)NC1=O [SEQ ID NO:20, C^(S)GGWKRKRC^(S)] (H-CGGWKRKRC-OH; disulfide 1-9; N-terminus and C-terminus assumed)
Staphylococcus aureus
  Staphylococcus aureus MBC: 16 µM
  Staphylococcus aureus MIC: 23 µM
[3]
  Micrococcus lysodeikticus MIC: 8 µM

## N=C(N)NCCC[C@@H]1NC(=O)[C@H](CCCCN)NC(=O)[C@H](CCCNC(=N)N)NC(=O)[C@H](CCCCN)NC(=O)[C@H](Cc2c[nH]c3ccccc23)NC(=O)[C@H](CCCCN)NC(=O)[C@H](CCCCN)NC(=O)[C@@H](N)CSSC[C@@H](C(=O)O)NC1=O [SEQ ID NO:21, C^(S)KKWKRKRC^(S)] (H-CKKWKRKRC-OH; disulfide 1-9; N-terminus and C-terminus assumed)
[1]; Table III
  Staphylococcus epidermidis MIC: 6.8 µM
Staphylococcus aureus; Table III
  Staphylococcus aureus MBC: 9.9 µM
  Staphylococcus aureus MIC: 4.4 µM
[3]; Table III
  Micrococcus lysodeikticus MBC: 9.9 µM
  Micrococcus lysodeikticus MIC: 6 µM

## N=C(N)NCCC[C@@H]1NC(=O)[C@H](CCCCN)NC(=O)[C@H](CCCNC(=N)N)NC(=O)[C@H](CCCCN)NC(=O)[C@H](Cc2c[nH]c3ccccc23)NC(=O)[C@H](CCCCN)NC(=O)[C@@H](N)CSSC[C@@H](C(=O)O)NC1=O [SEQ ID NO:22, C^(S)KWKRKRC^(S)] (H-CKWKRKRC-OH; disulfide 1-8; N-terminus and C-terminus assumed)
Staphylococcus aureus; Table III
  Staphylococcus aureus MBC: 14.8 µM
  Staphylococcus aureus MIC: 6.6 µM
[3]; Table III
  Micrococcus lysodeikticus MBC: 14.8 µM
  Micrococcus lysodeikticus MIC: 14.8 µM

## N=C(N)NCCC[C@@H]1NC(=O)[C@H](CCCCN)NC(=O)[C@H](CCCNC(=N)N)NC(=O)[C@H](CCCCN)NC(=O)[C@H](Cc2c[nH]c3ccccc23)NC(=O)[C@@H](N)CSSC[C@@H](C(=O)O)NC1=O [SEQ ID NO:23, C^(S)WKRKRC^(S)] (H-CWKRKRC-OH; disulfide 1-7; N-terminus and C-terminus assumed)
Staphylococcus aureus; Table III
  Staphylococcus aureus MBC: 22.2 µM
  Staphylococcus aureus MIC: 22.2 µM
[3]; Table III
  Micrococcus lysodeikticus MIC: 22.2 µM
[2]
  anti-microbial activity (in words): weaker

## N=C(N)NCCC[C@@H]1NC(=O)[C@H](CCCCN)NC(=O)[C@H](Cc2c[nH]c3ccccc23)NC(=O)[C@@H](N)CSSC[C@@H](C(=O)O)NC(=O)[C@H](CCCCN)NC1=O [SEQ ID NO:24, C^(S)WKRKC^(S)] (H-CWKRKC-OH; disulfide 1-6; N-terminus and C-terminus assumed)
Staphylococcus aureus; Table III
  Staphylococcus aureus MBC: >50 µM
  Staphylococcus aureus MIC: >50 µM
[3]; Table III
  Micrococcus lysodeikticus MIC: >50 µM
[2]
  anti-microbial activity (in words): does not exhibit any significant biological activity

## GFGSPNNYQS [SEQ ID NO:8, GFGSPNNYQS]
Micrococcus luteus; 24 h
  MIC on M leuteus: >75 µM

## GFGSPNNYQSHRHSKSIPGR [SEQ ID NO:9]
Micrococcus luteus; 24 h
  MIC on M leuteus: >75 µM

## NYQSHRHSKS [SEQ ID NO:13, NYQSHRHSKS]
Micrococcus luteus; 24 h
  MIC on M leuteus: >75 µM

## PNNYQSHRHSKSIPGRGR [SEQ ID NO:10, PNNYQSHRHSKSIPGRGR]
Micrococcus luteus; 24 h
  MIC on M leuteus: >75 µM

## PNNYQSHRHSKSIPGRS [SEQ ID NO:12, PNNYQSHRHSKSIPGRS]
Micrococcus luteus; 24 h
  MIC on M leuteus: >75 µM

## RLRSTSYRSG [SEQ ID NO:18, RLRSTSYRSG]
Micrococcus luteus; 24 h
  MIC on M leuteus: >75 µM

## SGGWHRLRS [SEQ ID NO:17, SGGWHRLRS]
Micrococcus luteus; 24 h
  MIC on M leuteus: >75 µM
[2]
  anti-microbial activity (in words): devoid of activity

## SKSIPGRSG [SEQ ID NO:14, SKSIPGRSG]
Micrococcus luteus; 24 h
  MIC on M leuteus: >75 µM
[2]
  anti-microbial activity (in words): show no activity
